Measured values from PMC6010047, “Design, synthesis and biological evaluation of novel hydroxy-phenyl-1H-benzimidazoles as radical scavengers and UV-protective agents” (Journal of Enzyme Inhibition and Medicinal Chemistry, 2017).
Like-named read-outs stand apart in the source and are kept apart here.

Columns and labels:
NCTC-2544 cells [1] = tested on: NCTC-2544 cells
Description: (§2) An immortalized, nontumorigenic cell line of human keratinocytes (NCTC-2544) was grown in a DMEM medium (Sigma-Aldrich Milan, Italy), supplemented with 115 units/mL of penicillin G, 115 μg/mL streptomycin, and 10% fetal calf serum (Invitrogen, Milan, Italy). Individual wells of a 96-well tissue culture microtiter plates (Falcon, Becton–Dickinson) were inoculated with 100 μL of complete medium containing 5 × 10^3 NCTC-2544. The plates were incubated at 37 °C in a humidified (5% CO2) incubator for 18 h prior to the experiments.
(§3) After medium removal, 100 μL of the drug solution, dissolved in DMSO and diluted in DMEM medium, was added to each well, incubated at 37 °C for 72 h. Final DMSO concentration never exceeded 0.5%. Cell viability was assayed by the MTT (3–(4,5-dimethylthiazol-2-yl)-2,5 diphenyl tetrazolium bromide) test as previously described by Mosmann[27].
(§4) The tests were conducted using a specific cell line of human keratinocytes (NCTC-2544). To assess cell viability, in the presence of the study compounds, before and after the irradiation, the MTT assay was performed[27]. The cytotoxicity was checked after 72 h from the incubation of the keratinocytes with compounds; moreover, the same experiments were performed in the presence of the parent PBSA.

[2] = Photostability of formulations under solar simulator, HPLC; assay type: physicochemical; conditions: 3% formulation; for Residual product (photostability): 2 mg/cm^2, solar simulator 1 h, HPLC
Description: (§1) HPLC analysis was performed using an Agilent 1100 Series HPLC System equipped with a G1315A DAD, and with a Hydro-RP C18 Synergi 80 Å column (4.6 × 150 mm, 4 μm) from Phenomenex, maintained at 25 °C during all the time of the analysis. The mobile phase consisted of water (0.01 M H3PO4) (solvent A) and acetonitrile (0.01 M H3PO4) (solvent B). • PBSA and 3: the determination was carried out in isocratic condition, A: 91%/B: 9%. Separation was monitored with absorbance detection at λmax of the molecule ±8 nm. The flow rate was 1.0 mL/min. • […]: the determination was carried out in isocratic condition, A: 84%/B: 16%. Separation was monitored with absorbance detection at λmax of the molecule ±8 nm. The flow rate was 1.0 mL/min
The solar simulator emission was maintained at 500 W/m^2. A portion of cosmetic formulation containing the sunscreen molecule (3%, w/w) was transferred onto the bottom of a beaker to gain a cosmetic mount of 2 mg/cm^2 and then was irradiated for 1 h with the solar simulator. After irradiation the beaker was removed and its content quantitatively transferred into a 50 mL calibrated flask with methanol and the remaining sunscreen concentration was determined by HPLC as described above. All samples were protected from light both before and after irradiation, the degree of photodegradation was evaluated by comparing the areas of the irradiated samples, with those of the unirradiated preparations.
Stability and photostability tests were performed only on compounds that as provided with the best antioxidant capacity together with a good photoprotection activity (i.e. 3, and 12). At first, the effective concentration of filtering molecules was verified in the formulation by HPLC. Samples of the formulations (2 mg/cm^2) were spread on a PMMA plate, for each compound including PBSA, and placed under a solar simulator for one hour before repeating HPLC analysis.

[3] = assay type: physicochemical
Description: as §1
Molecules 3 and 12 were challenged in accelerated stability studies against the parent compound. The formulations were submitted to accelerated aging at 40 °C and analyzed at specific intervals, with HPLC.

NCTC-2544 cells [4] = test: Cytotoxicity, MTT test, 72 h; conditions: read-out: IC50 cytotoxicity; NCTC-2544 human keratinocytes, 72 h, MTT
Description: as §2, §3, §4

Row | IC50 (NCTC-2544 cells [1]) [µM] | Residual product (photostability) [2] | degradation rate (photostability) ([2]; solar simulator 1 h) | % of remaining compounds T0 [3] [%] | % of remaining compounds T7 [3] | % of remaining compounds T14 [3] | % of remaining compounds T21 [3] | % of remaining compounds T28 [3] | % of remaining compounds T35 [3] | % of remaining compounds T49 [3] | % of remaining compounds T63 [3] | Compound | IC50 (NCTC-2544 cells [4]) [µM]
1 | > 50 |  |  |  |  |  |  |  |  |  |  | 2-(2,4-Dihydroxy-phenyl)-1H-benzimidazole [Compound 9] | 
2 |  | 98.4% ± 0.9% | less than 2% | 100 | 95,4% | 95,4% | 95,1% | 92,8% | 86,9% | 86,9% | 86,8% | O=C(O)c1ccc2[nH]c(-c3ccc(O)c(O)c3)nc2c1 [Compound 12, 2-(3,4-Dihydroxy-phenyl)-1H-benzimidazole-5-carboxylic acid] | 
3 |  |  |  |  |  |  |  |  |  |  |  | 2-(2-Hydroxy-phenyl)-1H-benzimidazole [Compound 10] | > 50
4 |  | 94.9% ± 0.8% |  | 100 | 96,7% | 89,6% | 86,3% | 73,4% | 73,4% | 67,6% | 64,6% | O=S(=O)(O)c1ccc2[nH]c(-c3ccc(O)c(O)c3)nc2c1 [Compound 3, 2-(3,4-Dihydroxy-phenyl)-1H-benzimidazole-5-sulfonic acid] | 

Row | Compound | IC50 (NCTC-2544 cells [1]) [µM] | Residual product (photostability) [2] | degradation rate (photostability) ([2]; solar simulator 1 h) | % of remaining compounds T0 [3] [%] | % of remaining compounds T7 [3] | % of remaining compounds T14 [3] | % of remaining compounds T21 [3] | % of remaining compounds T28 [3] | % of remaining compounds T35 [3] | % of remaining compounds T49 [3] | % of remaining compounds T63 [3] | IC50 (NCTC-2544 cells [4]) [µM]
5 | O=S(=O)(O)c1ccc2[nH]c(-c3ccccc3)nc2c1 [PBSA, 2-phenyl-1H-benzimidazole-5-sulfonic acid, reference compound] |  | 96.7% ± 1.8% |  | 100 | 99,4% | 98,1% | 97,2% | 96,4% | 94% | 92% | 90% | 
